According to US20250235423A1, “USES OF AMINO ACID-CHELATED ZINC, INCLUDING IMMUNE REGULATION AND TREATMENT OF AUTOIMMUNE DISEASE” (FAAC Bio Inc., priority 2024, published 2025):

Legend:
CIA rat [1] = test: Paw volume (average weight percentage of both paws) in collagen-induced arthritis (CIA) animal model; format: in vivo, Lewis rats; details: for Weight percentages of the rats' paws on Day 24 (FIG. 4): Day 24, compared to the untreated CIA rats (p value<0.05); for Weight percentages of the rats' paws over time (FIG. 3): after administration from Day 17, compared to the CIA group
Experimental: (§1) Lewis rats were bred under the condition with a temperature of 21° C. to 25° C., a humidity level of 40% to 70%, and a lighting period of 12 hours (7 a.m. to 7 p.m.). The rats had free access to the feed. All the rats were monitored for at least 6 days to ensure their health to prepare a collagen-induced arthritis (CIA) animal model.
(§2) A collagen emulsion was prepared by evenly mixing collagen and IFA at a volume ratio of 1:1 using a homogenizer in a cold water bath. On Day 1, 200 μL of the collagen emulsion was injected subcutaneously at the base of the rat's tail, followed by a booster injection of 100 μL of the collagen emulsion at a different site on the base of the tail on Day 8. All the rats successfully developed CIA by Day 17 (hereinafter referred to as “CIA rat”).
(§3) As described in Preparation example C, all the rats successfully developed CIA by Day 17. Therefore, the CIA rats were randomly divided into four groups from Day 17 to administer the following solutions until the rats were sacrificed on Day 24, wherein the healthy rats not to induce arthritis were served as the control group: • (1) Control group (five healthy rats): 2 mL of PBS; • (2) CIA group (five CIA rats): 2 mL of PBS; • (3) MTX group (three CIA rats): 1 mg of MTX per kilogram of rat, dissolved in 2 mL of PBS; • (4) CMC-Zn group (five CIA rats): CMC-Zn at a zinc concentration of 0.075 mg, dissolved in 2 mL of PBS; and • (5) Modified CMC-Zn group (five CIA rats): modified CMC-Zn at a zinc concentration of 0.075 mg, dissolved in 2 mL of PBS.
(§4) The rat's paws were observed and their paw volumes were measured on Days 0, 3, 7, 10, 14, 17, 21 and 24. The arthritis severity of rats was evaluated by using the qualitative scoring system of Table 3, and the paw volume was determined by the following approach in accordance with the buoyancy principle of Archimedes' law: adding an appropriate amount of water into a beaker; placing the beaker on a scale and resetting to zero; placing the rat's paw into the water and immersing it to the target depth; and recoding the reading once it had stabilized.

CIA rat [2] = test: Arthritis severity score in collagen-induced arthritis (CIA) animal model; format: in vivo, Lewis rats; design: Arthritis severity score: scale not given here; details: CIA rats; for Progression of arthritis severity after Day 17: compared to the CIA group
Experimental: as §1, §2, §3, §4

IL12P70 = test: ELISA analysis of IL12P70 in the medium of treated BMDCs; format: cell-based, mouse; details: BMDC media, all groups of the substance
Experimental: The secretion level of IL12P70 in immature DCs is very low, whereas mature DCs secret a large amount of IL12P70, allowing it an indicator of DC maturation. In this example, the expression levels of the surface markers (CD11c, CD40, CD83, CD86) on the BMDCs were analyzed using flow cytometry, and the secretion level of IL12p70 in the BMDCs' medium was measured with an ELISA kit, to observe the effects of amino acid-chelated zinc on dendritic cell maturation.
(§5) After culturing for 48 hours, the cells and their medium in each group were collected to conduct the following analysis, respectively.
The media obtained from each group were placed into tubes, respectively, and the tubes were centrifuged (400×g) at 4° C. for 10 minutes to collect the supernatants. The IL12p70 standard was subjected to a serial dilution to provide a standard curve. The standards at various concentrations and the supernatants obtained from each group were added into a 96-well plate pre-coating with IL12p70 antibodies (100 μL per well, in duplicate). […] The absorbance value at 450 nm (OD450) in each well was detected within 3 minutes. Based on the standard curve resulted from the absorbance values of IL12p70 standards at various concentrations, the IL12p70 amounts corresponding to the absorbance values of each group were calculated as shown in Table 2.

[3] = tested on: mouse bone marrow dendritic cells (BMDCs); test: Flow cytometry analysis of dendritic cell maturation surface markers on treated BMDCs; format: cell-based; details: for Ability to inhibit dendritic cell maturation: all zinc concentrations, directly proportional to the zinc concentration; for CD11c expression level / CD40 expression level / CD80 expression level / CD83 expression level / CD86 expression level / MHC II expression level: 48 hours
Experimental: Mice were sacrificed with carbon dioxide and immersed in 75% alcohol. After immersing for 3 minutes, the mice were removed from the alcohol and wiped. Then, the mouse limbs were fixed on a Styrofoam board. Next, the entire femur and tibia were collected by carefully cutting off the mouse skin and muscle. A filter (100 μm) was placed in a 3-cm dish and 2 ml of RPMI-1640 medium was added into the dish. Two ends of the femur were cut, and the bone marrow was collected by repeatedly washing the femur with the cell medium using a 26 G syringe until the femur appeared white. The bone marrow in the tibia was also collected by the same method. The filter was scraped by the reverse side of 1 mL tip to break up the cell clumps in the bone marrow and washed with the cell medium in the dish several times. Then, the cell medium in the dish was collected and placed into a tube to centrifuge at 1500 rpm for 3 minutes. After centrifuging, the supernatant was removed and 1 mL of RBC lysis buffer was added into the tube. After standing for 5 minutes, the tube was centrifuged at 1500 rpm for 3 minutes again. After removing the supernatant, a milky-white pellet was obtained. The pellet was re-suspended with the DC medium and the cell number of the suspension thus obtained was counted.
The cell concentration of the suspension was adjusted to 5×10^5 cells per mL. 1 mL of the suspension was added into each well of a 24-well plate. The 24-well plate was incubated at 37.5° C. and 5% CO2 for 2 days. The unattached granulocytes were removed by carefully removing the cell medium, and then, 0.5 mL of DC medium was added into each well of the 24-well plate. After incubating 3 days, the medium in each well was replaced with 0.5 mL of fresh DC medium and continuously incubated for 3 days. The 24-well plate was taken out from the incubator, and the medium in each well was carefully removed. The bottom of each well was gently pipetted with 2 mL of PBS several times. The pipetted PBS was collected into a centrifuge tube to count the number of cells and analyze the expression level of CD11c using flow cytometry.
as §5
The cells obtained from (1-1) were counted and the cell concentration was adjusted with PBS to provide a cell suspension of 1×10^5 cells to 5×10^5 cells per 100 μL. 100 μL of the cell suspension was evenly mixed with 20 μL of FcR Blocking Reagent, and the mixture thus obtained was placed at 4° C. for 10 minutes. Furthermore, the antibodies of CD11c, CD40, CD80, CD83, CD86, MHC II and corresponding isotype control were added into the tubes containing the mixture, respectively. After vortexing for 1 second, the tubes were placed at room temperature in the dark for 15 minutes. Then, 300 μL of PBS was added into each tube, and after vortexing for 1 second, the tubes were centrifuged at 200×g for 5 minutes. The resulting supernatants were removed and the cells were re-suspended with 300 μL of PBS. Finally, the cell suspensions thus obtained were analyzed by flow cytometry, wherein all the cell suspension of each group were kept on ice in the dark until the analysis was conducted.

[4] = Day 0 (before administration, which starts Day 17)
[5] = Day 17 (start of administration)
[6] = Day 21, administered from Day 17
[7] = Day 24, administered from Day 17
[8] = zinc concentration 3.27 mg/mL (low concentration)
[9] = zinc concentration 6.54 mg/mL (medium concentration)
[10] = zinc concentration 13.08 mg/mL (high concentration)

Row | Compound | Weight percentages of the rats' paws on Day 24 (FIG. 4) (CIA rat [1]) | Weight percentages of the rats' paws over time (FIG. 3) (CIA rat [1]) | Arthritis severity score (CIA rat [2]; [4]) | Arthritis severity score (CIA rat [2]; Day 3 (before administration)) | Arthritis severity score (CIA rat [2]; Day 7 (before administration)) | Arthritis severity score (CIA rat [2]; Day 10 (before administration)) | Arthritis severity score (CIA rat [2]; Day 14 (before administration)) | Arthritis severity score (CIA rat [2]; [5]) | Arthritis severity score (CIA rat [2]; [6]) | Arthritis severity score (CIA rat [2]; [7]) | Progression of arthritis severity after Day 17 (CIA rat [2]) | IL12P70 in the media (IL12P70) | Ability to inhibit dendritic cell maturation [3] | CD11c expression level [3, 8] | CD40 expression level [3, 8] | CD80 expression level [3, 8] | CD83 expression level [3, 8] | CD86 expression level [3, 8] | MHC II expression level [3, 8] | CD11c expression level [3, 9] | further results
1 | CN(Cc1cnc2nc(N)nc(N)c2n1)c1ccc(C(=O)N[C@@H](CCC(=O)O)C(=O)O)cc1 [MTX, Methotrexate, reference compound] | significantly decreased | gradually decreased | 0 | 0 | 0 | 0 | 0.3 | 3.7 | 3.7 | 3 | slower progression or even reduction in arthritis severity | – | – | – | – | – | – | – | – | – | –
2 | O=S(=O)([O-])[O-].[Zn+2] [Zinc sulfate, reference compound] | – | – | – | – | – | – | – | – | – | – | – | not detected | demonstrated the ability to inhibit dendritic cell maturation | 87.2 | 16.1 | 46.7 | 12.9 | 49.2 | 16.8 | 85.4 | CD40 expression level [3, 9]: 11.2; CD80 expression level [3, 9]: 37.2; CD83 expression level [3, 9]: 10.4; CD86 expression level [3, 9]: 41.3; MHC II expression level [3, 9]: 11.9; CD11c expression level [3, 10]: 85.6; CD40 expression level [3, 10]: 8.5; CD80 expression level [3, 10]: 26.8; CD83 expression level [3, 10]: 6.68; CD86 expression level [3, 10]: 26; MHC II expression level [3, 10]: 8.08
3 | glycine-chelated zinc [CMC-Zn] | significantly decreased | gradually decreased | 0 | 0 | 0 | 0 | 0.4 | 3.8 | 4.4 | 4.6 | slower progression or even reduction in arthritis severity | not detected | demonstrated the ability to inhibit dendritic cell maturation | 88.3 | 25 | 39 | 16.1 | 37.9 | 25 | 87.8 | Expression levels of CD80 and CD86 compared to the groups of zinc sulfate ([3]; low and medium concentration): significantly decreased; Expression levels of the markers compared to the Immature DC group ([3]; low concentration (3.27 mg/mL zinc)): even lower; CD40 expression level [3, 9]: 13.1; CD80 expression level [3, 9]: 23.7; CD83 expression level [3, 9]: 10.3; CD86 expression level [3, 9]: 23.1; MHC II expression level [3, 9]: 14; CD11c expression level [3, 10]: 74.1; CD40 expression level [3, 10]: 6.24; CD80 expression level [3, 10]: 26.5; CD83 expression level [3, 10]: 4.38; CD86 expression level [3, 10]: 25.4; MHC II expression level [3, 10]: 6.41
